How the values were obtained:
[1] = Dose-normalized area under curve in monkey (p.o.) at 2.0 mpk; assay type: ADME; settings: cercopithecidae, in vivo, po, 2 mg/kg
Rattus norvegicus [2] = assay: Lower clearance in rat (i.v.) at 0.5 mpk; assay type: ADME, organism-based; settings: in vivo, iv, 0.5 mg/kg
[3] = Longer half-life in monkey (i.v.) at 0.5 mpk; assay type: ADME, organism-based; settings: cercopithecidae, in vivo, iv, 0.5 mg/kg
[4] = Lower clearance in monkey (i.v.) at 0.5 mpk; assay type: ADME, organism-based; settings: cercopithecidae, in vivo, iv, 0.5 mg/kg
[5] = Bioavailability in monkey (p.o.) at 2.0 mpk; assay type: ADME, organism-based; settings: cercopithecidae, in vivo, po, 2 mg/kg
Canis familiaris [6] = assay: Dose-normalized area under curve in dog (p.o.) at 2.0 mpk; assay type: ADME, organism-based, Canis lupus familiaris; settings: in vivo, po, 2 mg/kg
Canis familiaris [7] = assay: Lower clearance in dog (i.v.) at 0.5 mpk; assay type: ADME, organism-based, Canis lupus familiaris; settings: in vivo, iv, 0.5 mg/kg
[8] = Bioavailability in dog (p.o.) at 2.0 mpk; assay type: ADME, organism-based, Canis lupus familiaris; settings: in vivo, po, 2 mg/kg
Rattus norvegicus [9] = assay: Dose-normalized area under curve in rat (i.v.) at 0.5 mpk; assay type: ADME, organism-based; settings: in vivo, iv, 0.5 mg/kg
Rattus norvegicus [10] = assay: Dose-normalized area under curve in rat (p.o.) at 2.0 mpk; assay type: ADME, organism-based; settings: in vivo, po, 2 mg/kg
[11] = Longer half-life in dog (i.v.) at 0.5 mpk; assay type: ADME, organism-based, Canis lupus familiaris; settings: in vivo, iv, 0.5 mg/kg
[12] = Bioavailability in rat (dose 2.0 mg/kg p.o.); assay type: ADME, organism-based; settings: in vivo, po
[13] = Longer half-life in rat (i.v.) at 0.5 mpk; assay type: ADME, organism-based; settings: in vivo, iv, 0.5 mg/kg
[14] = Longer half-life in rat (p.o.) at 2.0 mpk; assay type: ADME, organism-based; settings: in vivo, po, 2 mg/kg
Canis familiaris [15] = assay: In vivo percent change in serum cholesterol in dogs at 1 mg/kg; assay type: functional, Canis lupus familiaris
Canis familiaris [16] = assay: In vivo percent change in serum cholesterol in dogs at 3 mg/kg; assay type: functional, Canis lupus familiaris
Cricetinae gen. sp. [17] = assay: In vivo percent change in serum cholesterol in hamsters at 10 mg/kg; assay type: functional, Cricetulus griseus
Cricetinae gen. sp. [18] = assay: In vivo percent change in serum cholesterol in hamsters at 3 mg/kg; assay type: functional, Cricetulus griseus
Cricetinae gen. sp. [19] = assay: In vivo percent change in triglyceride in hamsters at 3 mg/kg; assay type: functional, Cricetulus griseus
Cricetinae gen. sp. [20] = assay: In vivo percent change in triglyceride in hamsters at 10 mg/kg; assay type: functional, Cricetulus griseus
Cricetinae gen. sp. [21] = assay: In vivo serum cholesterol in hamsters at 10 mg/kg; assay type: functional, Cricetulus griseus
Cricetinae gen. sp. [22] = assay: In vivo triglyceride in hamsters at 10 mg/kg; assay type: functional, Cricetulus griseus
Cricetinae gen. sp. [23] = assay: In vivo triglyceride in hamsters at 3 mg/kg; assay type: functional, Cricetulus griseus
[24] = In vitro transcriptional activation by human PPAR gamma Gal4 chimera
[25] = molecular target: T1, Peroxisome proliferator-activated receptor gamma (Mus musculus, UniProt P37238); assay: In vitro transcriptional activation by PPAR gamma
T1 sequence (P37238 whole entry): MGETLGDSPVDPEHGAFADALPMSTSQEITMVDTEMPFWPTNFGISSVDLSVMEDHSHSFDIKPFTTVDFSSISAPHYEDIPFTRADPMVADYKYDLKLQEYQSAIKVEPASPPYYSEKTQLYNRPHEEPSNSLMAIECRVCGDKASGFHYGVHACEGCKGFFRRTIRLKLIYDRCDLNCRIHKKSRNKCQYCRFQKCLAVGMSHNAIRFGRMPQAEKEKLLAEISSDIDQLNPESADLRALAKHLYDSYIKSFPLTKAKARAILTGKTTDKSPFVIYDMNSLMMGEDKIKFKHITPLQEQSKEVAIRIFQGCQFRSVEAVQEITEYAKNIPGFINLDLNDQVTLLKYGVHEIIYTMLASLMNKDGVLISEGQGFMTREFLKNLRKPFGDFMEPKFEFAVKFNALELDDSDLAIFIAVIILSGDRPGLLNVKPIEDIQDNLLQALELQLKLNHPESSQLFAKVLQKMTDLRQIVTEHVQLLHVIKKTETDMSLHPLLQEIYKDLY

[26] = molecular target: T2, Peroxisome proliferator-activated receptor delta (Homo sapiens, UniProt Q03181)
T2 sequence (Q03181 whole entry): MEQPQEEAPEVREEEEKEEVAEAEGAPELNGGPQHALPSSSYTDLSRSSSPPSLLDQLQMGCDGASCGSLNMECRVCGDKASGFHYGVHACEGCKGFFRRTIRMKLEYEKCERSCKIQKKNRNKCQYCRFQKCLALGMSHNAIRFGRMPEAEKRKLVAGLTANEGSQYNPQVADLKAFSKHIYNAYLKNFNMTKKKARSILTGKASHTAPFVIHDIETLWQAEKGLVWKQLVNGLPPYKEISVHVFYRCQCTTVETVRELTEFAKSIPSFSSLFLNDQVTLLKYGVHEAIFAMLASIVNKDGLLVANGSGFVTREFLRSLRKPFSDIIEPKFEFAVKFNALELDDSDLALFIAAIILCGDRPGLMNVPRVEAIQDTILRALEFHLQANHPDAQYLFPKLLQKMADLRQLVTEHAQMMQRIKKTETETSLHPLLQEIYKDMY

Mesocricetus auratus = assay: In vivo serum cholesterol in Golden Syrian hamsters at 3 mg/kg

Work on CC[C@]1(C(=O)O)CCc2ccc(OCCCOc3ccc(Oc4ccc(F)cc4)cc3Cl)cc2O1 yielded a nAUC [1] of 1.7 µM·h, a Clp (Rattus norvegicus [2]) of 3.4 mL/min/kg and a half-life [3] of 3.5 h. For the same molecule, the Clp [4] was 8.6 mL/min/kg, the bioavailability [5] was 43% and the nAUC (Canis familiaris [6]) was 9.2 µM·h. For the same molecule, the Clp (Canis familiaris [7]) was 3.5 mL/min/kg, the bioavailability [8] was 92% and the nAUC (Rattus norvegicus [9]) was 10 µM·h. It also gave a nAUC (Rattus norvegicus [10]) of 4.8 µM·h, a half-life [11] of 10 h and a bioavailability [12] of 48%. It also gave a half-life [13] of 4.6 h, a half-life [14] of 3.7 h and a Change (Canis familiaris [15]) of -23.3%. The Change (Canis familiaris [16]) was -31.6%, the Change (Cricetinae gen. sp. [17]) was -40% and the Change (Cricetinae gen. sp. [18]) was -21%. It also gave a Change (Cricetinae gen. sp. [19]) of -27%, a Change (Cricetinae gen. sp. [20]) of -48% and an Activity (Cricetinae gen. sp. [21]) of 65 mg/dL. It also gave an Activity (Cricetinae gen. sp. [22]) of 159 mg/dL, an Activity (Cricetinae gen. sp. [23]) of 222 mg/dL and an EC50 [24] of 140 nM. For the same molecule, the EC50 [25] was 150 nM, the IC50 [26] was > 15000 nM and the Activity (Mesocricetus auratus) was 85 mg/dL.
